# Laboratory results as given in patent US9568449B2, “Dielectric spectroscopy methods and apparatus” (Bend Research, Inc., priority 2012, dated 2017).
# Columns and labels:
# [1] = tested on: first population of cells; test: Viability of a cell population after apoptosis induction with staurosporine; type: cell-based; conditions: 1 μM staurosporine added at day 14 of cell growth; compared with untreated control population; FIG. 19B
# Protocol: FIG. 19A is a chart 1900 that illustrates the viability of cells (along the y-axis) in two different cell populations over a period of time (along the x-axis) in an example experiment corresponding to the method of FIG. 18. As shown, a first line 1910 indicates the viability of a first population of cells, which has apoptosis induced using addition of a staurosporine agent. In this case, a 1 μM concentration of staurosporine was used. A second line 1915 indicates the viability of a second population of cells, which is a control population that is not induced using a staurosporine agent.
# At a designated time period, apoptosis is induced in the first population of cells by adding an apoptosis inducing agent to the environment.
# FIG. 19B is a chart 1930 that illustrates viable cell density (VCD) (left y-axis) and cell viability percentage (right y-axis) plotted over time (x-axis) for the first and second measurements of the first and second populations of cells received at process block 1810 and 1820.
# [2] = tested on: first population of cells; test: Dielectric spectroscopy (normalized capacitance versus frequency) of an apoptosis-induced cell population; type: cell-based; conditions: from time of staurosporine addition (day 14) to 60 hours after addition; compared with slight drift in control; FIG. 19D
# Description: At process block 1810, data representing a number of measurements of an electrical property of a first population of cells are received. The measurements can be obtained by applying a frequency-varying signal (e.g., a sine wave having a frequency that is varied across a selected frequency range, or at two or more selected frequencies) to the population of cells while measuring an electrical property such as permittivity or capacitance. A number of selected frequencies can be used, for example, frequencies between 50 kHz and 10 MHz. The measured permittivity of the population of cells will vary depending on the frequency of the applied signal used to measure permittivity. For example, the permittivity can range from a high measurement of 4×10^−9 Farads per meter (F/m) at a low frequency of 50 kHz to a low measurement of 1×10^−11 F/m at a high frequency of 10 MHz. […] The cells can be mammalian cells (e.g. from the CHO or NS0 cell lines) suspended in a nutrient solution.
# At process block 1830, the first set of measurements for the first population of cells and the second set of measurements for the second population of cells are compared.
# The chart 1950 of FIG. 19D illustrates the first set of measurements obtained from the first population of cells that has an apoptosis-inducing agent added at day 14 of cell growth.
smiles,measurement,setting,value
CN[C@@H]1C[C@H]2O[C@@](C)([C@@H]1OC)n1c3ccccc3c3c4c(c5c6ccccc6n2c5c31)C(=O)NC4 [staurosporine],cell viability percentage,[1],declining
same,viable cell density (VCD),[1],declining
same,shift of normalized capacitance versus frequency curve,[2],more substantial drift to the right
